Drawing on patent publication US12291519B2, “2-hydroxycycloalkane-1-carbamoyl” (Idorsia Pharmaceuticals Ltd, priority 2019, dated 2025), this text covers IC50 for 17 molecules.

For one experiment, the target named is human Gal-1 (hGal-1). Put plainly: Competitive binding assay: biotinylated hGal-1 binding to microplate-adsorbed asialofetuin (ASF). The conditions noted are these: Activity on hGal-1; binding of biotinylated hGal-1 to ASF-coated plates; mean values. Put shortly: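 Inhibition measured as loss of hGal-1 (biotinylated, 300–1000 ng/mL, wild type or Cys→Ser mutant) binding to adsorbed asialofetuin over 3 h at 4 °C. Bound lectin detected with streptavidin-HRP and ABTS (410 nm, 30–45 min); IC50 values averaged across repeat measurements.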

Another experiment addresses human Gal-3 (hGal-3) (Homo sapiens (Human), UniProt P17931). Put plainly: Competitive binding assay: biotinylated hGal-3 binding to microplate-adsorbed asialofetuin (ASF). The conditions noted are these: Activity on hGal-3; binding of biotinylated hGal-3 to ASF-coated plates; mean values. Put shortly:
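Serially diluted compounds competed with biotinylated human Gal-3 for binding to plate-adsorbed asialofetuin over 3 h at 4 °C. Bound Gal-3 was detected with streptavidin-peroxidase (80 ng/mL, 1 h, 4 °C) and ABTS substrate. IC50 values are means of several measurements.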

Structures are written as SMILES. pIC50: −log10 of the molar value.

human Gal-3 (hGal-3), sequence (P17931 whole entry): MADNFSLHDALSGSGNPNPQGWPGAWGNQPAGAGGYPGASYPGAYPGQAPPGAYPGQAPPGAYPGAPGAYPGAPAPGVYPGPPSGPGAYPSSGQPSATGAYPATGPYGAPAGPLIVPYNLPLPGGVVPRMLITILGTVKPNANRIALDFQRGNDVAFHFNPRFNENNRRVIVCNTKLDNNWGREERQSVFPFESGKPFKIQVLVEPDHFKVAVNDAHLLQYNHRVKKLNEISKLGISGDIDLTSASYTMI
human Gal-1 (hGal-1), sequence (P09382 2-135 limits assumed): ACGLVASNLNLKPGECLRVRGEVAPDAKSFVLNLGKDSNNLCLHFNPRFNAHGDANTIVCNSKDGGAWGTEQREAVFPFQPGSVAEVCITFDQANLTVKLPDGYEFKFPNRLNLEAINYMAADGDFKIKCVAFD

Turning to `CO[C@@H]1[C@@H](n2cc(-c3cc(F)c(F)c(F)c3)nn2)[C@@H](O)[C@@H](CO)O[C@H]1C(=O)N(c1cccc(F)c1)[C@H]1CCCC[C@@H]1O` [Example 114, (2R,3R,4S,5R,6R)-N-(3-fluorophenyl)-5-hydroxy-N-((1S,2S)-2-hydroxycyclohexyl)-6-(hydroxymethyl)-3-methoxy-4-(4-(3,4,5-trifluorophenyl)-1H-1,2,3-triazol-1-yl)tetrahydro-2H-pyran-2-carboxamide], the results for the pIC50 on human Gal-1 (hGal-1) and at human Gal-3 (hGal-3) were 5.70 and 7.31, respectively.
As for `CO[C@@H]1[C@@H](n2cc(-c3cc(F)c(F)c(F)c3)nn2)[C@@H](O)[C@@H](CO)O[C@H]1C(=O)N(c1cccc(C#N)c1)[C@H]1CCCC[C@@H]1O` [Example 115, (2R,3R,4S,5R,6R)-N-(3-cyanophenyl)-5-hydroxy-N-((1S,2S)-2-hydroxycyclohexyl)-6-(hydroxymethyl)-3-methoxy-4-(4-(3,4,5-trifluorophenyl)-1H-1,2,3-triazol-1-yl)tetrahydro-2H-pyran-2-carboxamide], the pIC50 at human Gal-1 (hGal-1) was 6.00; on human Gal-3 (hGal-3), 7.60.
`CO[C@@H]1[C@@H](n2cc(-c3cc(F)c(F)c(F)c3)nn2)[C@@H](O)[C@@H](CO)O[C@H]1C(=O)N(c1cccc(C(F)(F)F)c1)[C@H]1CCCC[C@@H]1O` [Example 116, (2R,3R,4S,5R,6R)-5-hydroxy-N-((1S,2S)-2-hydroxycyclohexyl)-6-(hydroxymethyl)-3-methoxy-N-(3-(trifluoromethyl)phenyl)-4-(4-(3,4,5-trifluorophenyl)-1H-1,2,3-triazol-1-yl)tetrahydro-2H-pyran-2-carboxamide]: the figures for the pIC50 at human Gal-1 (hGal-1) and at human Gal-3 (hGal-3) were 5.71 and 7.59, respectively.
On to `CO[C@@H]1[C@@H](n2cc(-c3cc(F)c(F)c(F)c3)nn2)[C@@H](O)[C@@H](CO)O[C@H]1C(=O)N(c1cc(F)cc(F)c1)[C@H]1CCCC[C@@H]1O` [Example 117, (2R,3R,4S,5R,6R)-N-(3,5-difluorophenyl)-5-hydroxy-N-((1S,2S)-2-hydroxycyclohexyl)-6-(hydroxymethyl)-3-methoxy-4-(4-(3,4,5-trifluorophenyl)-1H-1,2,3-triazol-1-yl)tetrahydro-2H-pyran-2-carboxamide], for which the values for the pIC50 on human Gal-1 (hGal-1) and on human Gal-3 (hGal-3) were 6.01 and 7.42, respectively.
As to `COc1cc(F)cc(N(C(=O)[C@@H]2O[C@H](CO)[C@H](O)[C@H](n3cc(-c4cc(F)c(F)c(F)c4)nn3)[C@H]2OC)[C@H]2CCCC[C@@H]2O)c1` [Example 118, (2R,3R,4S,5R,6R)-N-(3-fluoro-5-methoxyphenyl)-5-hydroxy-N-((1S,2S)-2-hydroxycyclohexyl)-6-(hydroxymethyl)-3-methoxy-4-(4-(3,4,5-trifluorophenyl)-1H-1,2,3-triazol-1-yl)tetrahydro-2H-pyran-2-carboxamide], the pIC50 at human Gal-1 (hGal-1) is 5.83; on human Gal-3 (hGal-3), 7.59.
Regarding `CO[C@@H]1[C@@H](n2cc(-c3cc(F)c(F)c(F)c3)nn2)[C@@H](O)[C@@H](CO)O[C@H]1C(=O)N(c1cc(C)cc(F)c1)[C@H]1CCCC[C@@H]1O` [Example 119, (2R,3R,4S,5R,6R)-N-(3-fluoro-5-methylphenyl)-5-hydroxy-N-((1S,2S)-2-hydroxycyclohexyl)-6-(hydroxymethyl)-3-methoxy-4-(4-(3,4,5-trifluorophenyl)-1H-1,2,3-triazol-1-yl)tetrahydro-2H-pyran-2-carboxamide], the pIC50 on human Gal-1 (hGal-1) was 5.74; at human Gal-3 (hGal-3), 7.52.
Consider `CO[C@@H]1[C@@H](n2cc(-c3cc(F)c(F)c(F)c3)nn2)[C@@H](O)[C@@H](CO)O[C@H]1C(=O)N(c1cc(F)cc(Br)c1)[C@H]1CCCC[C@@H]1O` [Example 120, (2R,3R,4S,5R,6R)-N-(3-bromo-5-fluorophenyl)-5-hydroxy-N-((1S,2S)-2-hydroxycyclohexyl)-6-(hydroxymethyl)-3-methoxy-4-(4-(3,4,5-trifluorophenyl)-1H-1,2,3-triazol-1-yl)tetrahydro-2H-pyran-2-carboxamide], for which the negative logarithm of the IC50 (pIC50) on human Gal-1 (hGal-1) was 6.37; on human Gal-3 (hGal-3), 7.68.
Turning to `CO[C@@H]1[C@@H](n2cc(-c3cc(F)c(F)c(F)c3)nn2)[C@@H](O)[C@@H](CO)O[C@H]1C(=O)N(c1cc(F)cc(Cl)c1)[C@H]1CCCC[C@@H]1O` [Example 121, (2R,3R,4S,5R,6R)-N-(3-chloro-5-fluorophenyl)-5-hydroxy-N-((1S,2S)-2-hydroxycyclohexyl)-6-(hydroxymethyl)-3-methoxy-4-(4-(3,4,5-trifluorophenyl)-1H-1,2,3-triazol-1-yl)tetrahydro-2H-pyran-2-carboxamide], the pIC50 on human Gal-1 (hGal-1) was 6.35; on human Gal-3 (hGal-3), 7.72.
Take `CO[C@@H]1[C@@H](n2cc(-c3cc(F)c(F)c(F)c3)nn2)[C@@H](O)[C@@H](CO)O[C@H]1C(=O)N(c1cccc(C)c1)[C@H]1CCCC[C@@H]1O` [Example 122, (2R,3R,4S,5R,6R)-5-hydroxy-N-((1S,2S)-2-hydroxycyclohexyl)-6-(hydroxymethyl)-3-methoxy-N-(m-tolyl)-4-(4-(3,4,5-trifluorophenyl)-1H-1,2,3-triazol-1-yl)tetrahydro-2H-pyran-2-carboxamide]: the pIC50 is 5.32 on human Gal-1 (hGal-1) and 7.37 on human Gal-3 (hGal-3).
In the same order, the values of `CO[C@@H]1[C@@H](n2cc(-c3cc(F)c(F)c(F)c3)nn2)[C@@H](O)[C@@H](CO)O[C@H]1C(=O)N(c1ccc2nc(C)[nH]c2c1)[C@H]1CCCC[C@@H]1O` [Example 123, (2R,3R,4S,5R,6R)-5-hydroxy-N-((1S,2S)-2-hydroxycyclohexyl)-6-(hydroxymethyl)-3-methoxy-N-(2-methyl-1H-benzo[d]imidazol-6-yl)-4-(4-(3,4,5-trifluorophenyl)-1H-1,2,3-triazol-1-yl)tetrahydro-2H-pyran-2-carboxamide] are 5.23 and 7.07.
As for `O=C(CO[C@@H]1[C@@H](n2cc(-c3cc(F)c(F)c(F)c3)nn2)[C@@H](O)[C@@H](CO)O[C@H]1C(=O)N(c1cc(Cl)cc(Cl)c1)[C@H]1CCCC[C@@H]1O)N1CCOCC1` [Example 124, (2R,3R,4S,5R,6R)—N-(3,5-dichlorophenyl)-5-hydroxy-N-((1S,2S)-2-hydroxycyclohexyl)-6-(hydroxymethyl)-3-(2-morpholino-2-oxoethoxy)-4-(4-(3,4,5-trifluorophenyl)-1H-1,2,3-triazol-1-yl)tetrahydro-2H-pyran-2-carboxamide], the pIC50 on human Gal-1 (hGal-1) was 6.65; on human Gal-3 (hGal-3), 7.92.
For `O=C(CO[C@@H]1[C@@H](n2cc(-c3cc(F)c(F)c(F)c3)nn2)[C@@H](O)[C@@H](CO)O[C@H]1C(=O)N(c1cc(Cl)cc(Cl)c1)[C@H]1CCCC[C@@H]1O)N1CC[C@H](O)C1` [Example 125, (2R,3R,4S,5R,6R)—N-(3,5-dichlorophenyl)-5-hydroxy-N-((1S,2S)-2-hydroxycyclohexyl)-6-(hydroxymethyl)-3-(2-((S)-3-hydroxypyrrolidin-1-yl)-2-oxoethoxy)-4-(4-(3,4,5-trifluorophenyl)-1H-1,2,3-triazol-1-yl)tetrahydro-2H-pyran-2-carboxamide], the pIC50 on human Gal-1 (hGal-1) was 6.87; on human Gal-3 (hGal-3) it was 8.05.
In the case of `O=C(CO[C@@H]1[C@@H](n2cc(-c3cc(F)c(F)c(F)c3)nn2)[C@@H](O)[C@@H](CO)O[C@H]1C(=O)N(c1cc(Cl)cc(Cl)c1)[C@H]1CCCC[C@@H]1O)N1CC[C@@H](O)C1` [Example 126, (2R,3R,4S,5R,6R)—N-(3,5-dichlorophenyl)-5-hydroxy-N-((1S,2S)-2-hydroxycyclohexyl)-6-(hydroxymethyl)-3-(2-((R)-3-hydroxypyrrolidin-1-yl)-2-oxoethoxy)-4-(4-(3,4,5-trifluorophenyl)-1H-1,2,3-triazol-1-yl)tetrahydro-2H-pyran-2-carboxamide], the pIC50 on human Gal-1 (hGal-1) was 6.87; on human Gal-3 (hGal-3), 7.80.
As to `O=C(CO[C@@H]1[C@@H](n2cc(-c3cc(F)c(F)c(F)c3)nn2)[C@@H](O)[C@@H](CO)O[C@H]1C(=O)N(c1cc(Cl)cc(Cl)c1)[C@H]1CCCC[C@@H]1O)N1CCC(O)CC1` [Example 127, (2R,3R,4S,5R,6R)—N-(3,5-dichlorophenyl)-5-hydroxy-N-((1S,2S)-2-hydroxycyclohexyl)-6-(hydroxymethyl)-3-(2-(4-hydroxypiperidin-1-yl)-2-oxoethoxy)-4-(4-(3,4,5-trifluorophenyl)-1H-1,2,3-triazol-1-yl)tetrahydro-2H-pyran-2-carboxamide], the pIC50 on human Gal-1 (hGal-1) was 6.74; on human Gal-3 (hGal-3), 7.92.
Turning to `O=C(CO[C@@H]1[C@@H](n2cc(-c3cc(F)c(F)c(F)c3)nn2)[C@@H](O)[C@@H](CO)O[C@H]1C(=O)N(c1cc(Cl)cc(Cl)c1)[C@H]1CCCC[C@@H]1O)N1CC(O)C1` [Example 128], the pIC50 was 6.75 at human Gal-1 (hGal-1) and 7.89 on human Gal-3 (hGal-3).
In the same order, the values of `CO[C@@H]1[C@@H](n2cc(-c3cc(F)c(F)c(Cl)c3)nn2)[C@@H](O)[C@@H](CO)O[C@H]1C(=O)N(c1cc(Cl)cc(Cl)c1)[C@H]1CCCC[C@@H]1O` [Example 129, (2R,3R,4S,5R,6R)-4-(4-(3-chloro-4,5-difluorophenyl)-1H-1,2,3-triazol-1-yl)-N-(3,5-dichlorophenyl)-5-hydroxy-N-((1S,2S)-2-hydroxycyclohexyl)-6-(hydroxymethyl)-3-methoxytetrahydro-2H-pyran-2-carboxamide] are 6.85 and 7.49.
Consider `CO[C@@H]1[C@@H](n2cc(-c3cc(F)c(F)c(Cl)c3)nn2)[C@@H](O)[C@@H](CO)O[C@H]1C(=O)N(c1ccc(F)c(F)c1)[C@H]1CCCC[C@@H]1O` [Example 130, (2R,3R,4S,5R,6R)-4-(4-(3-chloro-4,5-difluorophenyl)-1H-1,2,3-triazol-1-yl)-N-(3,4-difluorophenyl)-5-hydroxy-N-((1S,2S)-2-hydroxycyclohexyl)-6-(hydroxymethyl)-3-methoxytetrahydro-2H-pyran-2-carboxamide], for which the negative-log IC50 (pIC50) at human Gal-1 (hGal-1) was 6.03; on human Gal-3 (hGal-3) it was 7.28.

In general, pIC50 refers to the negative decadic logarithm of the IC50, by convention in mol/L. A lower pIC50 goes with a high IC50.
